From patent US11925632B2, “Isoquinoline derivatives for use in treating GLUT1 deficiency syndrome” (GLIAPHARM SA, priority 2019, dated 2024)
“Also recorded” adds a separate entry of the source.

What was measured:
primary astrocytes [1] = test: Intracellular glycogen quantification; assay type: cell-based, mouse; details: 10 μM, 3 h, vs vehicle
Description: Primary cultures of cerebrocortical astrocytes were obtained from 1 to 2-day-old OF1 mouse pups (Charles River). Briefly, cortices were isolated and minced in small pieces under a dissecting microscope. The cells were incubated for 30 min at 37° C. in a solution containing 20 U/ml papain, 1 mM L-cysteine and 10 kU/ml DNase I. After dissociation, papain activity was stopped by the addition of fetal calf serum (FCS). Single-cell suspension was then obtained by mechanical dissociation, which consisted in cells trituration in a DMEM D7777 medium supplemented with 44 mm NaHCO3, 10 ml/L antibiotic/antimycotic solution and 10% FCS. […]
Astrocytes grown on 12-well plates were used for intracellular glycogen quantifications. […]
First, the amount of proteins in each sample was quantified to assess whether harvested astrocytes from primary cell cultures yielded enough and equivalent amounts of proteins on each replicates. Proteins were quantified using the micro BCA Protein Assay kit (Thermo Scientific), according to manufacturer's instructions. Next, intracellular glycogen concentrations were quantified using a 250 μl-aliquot of the same stimulated, thawed, and sonicated cell lysate. […] Fluorescence intensity (340 nm excitation/440 nm emission) was measured using a Safire 2 spectrophotometer. […]

primary astrocytes [2] = test: MTT mitochondrial activity assay; assay type: cell-based; details: Mus musculus, Astrocyte, 24 h treatment
Description: Primary cultures of cerebrocortical astrocytes were obtained from 1 to 2-day-old OF1 mouse pups (Charles River). Briefly, cortices were isolated and minced in small pieces under a dissecting microscope. The cells were incubated for 30 min at 37° C. in a solution containing 20 U/ml papain, 1 mM L-cysteine and 10 kU/ml DNase I. After dissociation, papain activity was stopped by the addition of fetal calf serum (FCS). Single-cell suspension was then obtained by mechanical dissociation, which consisted in cells trituration in a DMEM D7777 medium supplemented with 44 mm NaHCO3, 10 ml/L antibiotic/antimycotic solution and 10% FCS. The cells were seeded at an average density of ˜10′000 cells/cm^2 on poly-D-lysine coated 96- or 12-well culture plates, depending on their use, and grown in DMEM D7777 medium supplemented with 44 mm NaHCO3, 10 ml/L antibiotic/antimycotic solution and 10% FCS at 37° C. in a humidified atmosphere containing 5% CO2/95% air. Culture medium was renewed twice a week. Cells were stimulated and harvested between DIV14 and DIV17, when confluence and cell growth were optimal.
To monitor mitochondrial activity in astrocytes, which is linked to the metabolic process of glycolysis and production of lactate, astrocytes in 96-well plates were stimulated for 24 h (37° C. 5% CO2/95% air) with the compounds of the invention ranging from 0.2 to 200 μM.
After stimulation, 5 mg/ml thiazol blue tetrazolium bromide (MTT) in D5030 medium complemented with 5 mM D-glucose and 44 mM sodium bicarbonate (pH 7.2) was added to each well, and cells were incubated for 4 h at 37° C. (5% CO2). The medium was then removed and the amount of reduced MTT, i.e. formazan, solubilized in DMSO (50 μl/well) was determined using a spectrophotometer (absorbance of 570 nm).
The mitochondrial activity in primary astrocytes treated with Compounds (1) to (4) at concentrations ranging from 1 nM to 200 μM. After 24 h, mitochondrial activity was monitored in MTT colorimetric assay as described above (FIG. 3).

[3] = tested on: astrocytes transfected with GLUT1 siRNA; test: 2-deoxyglucose (2DG) uptake, GLUT1 siRNA astrocytes (cellular model of GLUT1-DS); assay type: cell-based, mouse; details: 30 min treatment, 1 or 10 μM, vs vehicle
Description: Astrocytes grown on 12-well plates and transfected with either scramble siRNA or GLUT1 siRNA were used. 1 day after having replaced transfection medium (DIV13), 2DG uptake was measured after treatment for 30 min with Vehicle (0.1% DMSO) or with the compound of the invention (1) (concentrations of 1 or 10 μM). During treatment, 1 mM 2DG was added to the medium for assessment of 2DG uptake. At the end of the stimulation, medium was removed and replaced with 150 μl NaOH 0.1M, and stored at −20° C. After thawing, cells were collected using cell scraper and heated for 40 min at 85° C. Then, 150 ul HCl 0.1M and TAE buffer 200 mM was added to each condition. 20 μl were added to a transparent 96-well plate and 2DG was quantified by addition of a reaction solution containing 50 mM TAE, 50 mM KCl, 0.02% BSA, 0.1 mM NADP, 0.2 U/ml diaphorase, 2 mM resazurin and 20 U/ml glucose-6-phosphate dehydrogenase. Concentration of 2DG in samples were calculated by comparison with standard curve of deoxy-glucose-6-phosphate ranging from 0 to 1 nmoles.
Scramble and GLUT1 siRNA sequences were as following:
Cells were grown in transfection medium for 3 days at 37° C. in a humidified atmosphere containing 5% CO2/95% air. […]
2DG uptake after treatment with Veh or compound of the invention (1) was measured in astrocytes transfected with scramble siRNA or GLUT1 siRNA (FIG. 4A).

Q: What does the source list for COc1cc2ccnc(Nc3ccc(OC(F)(F)F)cc3)c2cc1OC [Example 1, 6,7-dimethoxy-N-(4-(trifluoromethoxy)phenyl)isoquinolin-1-amine]?
A: Intracellular glycogen levels (primary astrocytes [1]): significantly enhances the degradation of intracellular glycogen; IC50 (primary astrocytes [2]): 34.4 µM; 2DG uptake [3]: restored; also recorded: significantly enhances 2DG uptake
